Test [1] addresses T1, FK-506 binding protein (FKBP) (Homo sapiens, UniProt P62942). Description: Inhibition of PPIase (rotamase) enzyme activity of FKBP (apparent Ki). The format is biochemical. The following applies: substrate N-succinylAla-Ala-Pro-Phe-p-nitroanilide, chymotrypsin-coupled. The text has this: The inhibition of the PPIase (rotamase) enzyme activity of the FKBP (apparent "Ki" values) can also be measured according to the methods described by either Harding, M. W. et al., Nature 341:758-760 (1989) or Siekierka, J. J. et al., Nature 341:755-757 (1989). The cis-trans isomerization of the proline-alanine peptide bond in a model substrate, N-succinylAla-Ala-Pro-Phe-p-nitroanilide, is monitored spectrophotometrically in a coupled assay with chymotrypsin, which releases 4-nitroanilide from the trans form of the substrate. Fischer, G. et al., Nature 337:476-478 (1989). The inhibitory effect of the addition of different concentrations of inhibitor on the extent of the reaction is determined, and analysis of the change in first order rate constant as a function of inhibitor concentration yields an estimate of the apparent Ki value.

In test [2] the target is T1, FK-506 binding protein (FKBP). Description: Competitive binding to FKBP against [3H]dihydro-FK-506 (apparent Kd). The following applies: competition with [3H]dihydro-FK-506.
The subject of test [3] is human peripheral blood lymphocytes. Description: Mitogenesis assay OKT3: inhibition of proliferation of human PBLs. The format is cell-based. To be noted: Lymphocyte, OKT3 (10^-4 dilution final), 48 h incubation. On the procedure: (§1) PMA and OKT3mitogens used to stimulate proliferation of human peripheral
(§2) blood lymphocytes (PBC). Compounds are evaluated on their ability to
(§3) Fresh peripheral blood lymphocytes (PBLs) from LeukoPak cells or whole blood from random normal blood donors (tested HIV-negative and hepatitis negative) are isolated and separated by density centrifugation over Histopaque 1077 (Sigma Chemical Co., St. Louis, Mo.). The murine CTLL cytotoxic T cell line and the human Jurkat T cell line are from ATCC (CTLL-2 ATCC TIB214, JURKAT CLONE E6-1 ATCC TIBl52). The human allogeneic B cell lines used for activation of the fresh PBLs are EBV-transformed lymphocytes from normal healthy adult donors with two completely different HLAhaplotypes. All cell lines were routinely tested for the presence of Mycolasma contamination using the GibcoMycotect test kit and are Mycolasma-free. Culture medium consksts of RPMI 1640 (Gibco, Grand Island, N.Y.) containing penicillin (50 U/ml) and streptomycin (50 μg/ml), L-glutamine 2 mM, 2 mercaptoethanol (5×10^-5), 10% heat-inactivated FCS and 10 mM HEPES.
(§4) All chemical stocks were dissolved in DMSO.
(§5) Mitogenesis Assays ("PMA" and "OKT3")
(§6) After 48 h incubation (37° C., 5% CO2), cells were pulsed with 1 μCi of ^3 H-thymidine, harvested 24 h later with a Tom Tek cell harvester, and counted in LKB β-scintillation counter.

Test [4] concerns PBLs stimulated with LB human viral transformed B lymphoblastoid cells. Description: MLR bioassay LB: inhibition of proliferation in mixed lymphocyte reaction. The format is cell-based. To be noted: Lymphoblastoid cell, pulsed on day 6, harvested 24 h later. On the procedure:
(§7) LB and JVMhuman viraltransformed B lymphoblastoid cell lines stimulated t
(§8) proliferate in a mixed lymphocyte reaction (MLR). The compounds are
(§9) evaluated on their ability to inhibit this proliferation.
as §3, §4
(§10) MLR Bioassays ("LB" and "JVM")
(§11) Antigen activated proliferation of PBLs in a primary mixed lymphocyte reaction was assessed in the presence or absence of different concentrations of tested compounds and control drugs. 5×10^4 fresh PBLs were stimulated with 5×10^3 of Mitomycin C treated-allogeneic EBV-transformed β-lymphoglastoid cells, IB and JVM, in a final volume of 200 μl per well in 96-well round-bottomed plates (Mishell, B. B. and S. M. Shiigi, Selected Methods in Cellular Immunology W. H. Freeman and Co., San Francisco, Calif. (1980); Nelson, P. A. et al., Transplantation 50:286 (1990)). Cultures were pulsed on day 6, harvested 24 h later and counted as in previous section.

Test [5] has as its system human peripheral blood lymphocytes. Put plainly: Mitogenesis assay PMA: inhibition of proliferation of human PBLs. The format is cell-based. To be noted: Lymphocyte, PMA (10 ng/ml) plus ionomycin (250 ng/ml), 48 h incubation. On the procedure: as §1, §2, §3, §4, §5, §6
Test [6] concerns PBLs stimulated with JVM human viral transformed B lymphoblastoid cells. Put plainly: MLR bioassay JVM: inhibition of proliferation in mixed lymphocyte reaction. The format is cell-based. The following applies: Lymphoblastoid cell, pulsed on day 6, harvested 24 h later. On the procedure:
as §7, §8, §9, §3, §4, §10, §11

Some results are limits rather than exact numbers.

T1 sequence (P62942 whole entry): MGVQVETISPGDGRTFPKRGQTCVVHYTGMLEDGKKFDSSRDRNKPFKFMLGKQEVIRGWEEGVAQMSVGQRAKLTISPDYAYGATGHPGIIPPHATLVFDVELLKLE

Turning to `O=C(OCc1ccccc1)[C@@H]1CCCCN1C(=O)/C=C/c1ccc2c(c1)OCO2` [Compound 110], the Ki in test [1] turned out to be 3 µM. Further, in test [2], the Kd was above 4 µM.
Take `COc1ccc(/C=C/C(=O)N2CCC[C@H]2C(=O)OCc2ccccc2)cc1` [Compound 111]: in test [1], the Ki was 6 µM. The Kd in test [2] is above 30 µM.
On to `CC(C)(C)OC(=O)[C@@H]1CCCN1C(=O)C(=O)c1ccco1` [Compound 19], for which, in test [1], the Ki is 200 µM. The Kd in test [2] was above 500 µM.
In the case of `COC(=O)C(=O)N1CCC[C@H]1C(=O)OC(C)(C)C` [Compound 29], the Ki in test [1] is 600 µM. Also, the Kd in test [2] was above 500 µM.
For the compound `O=C(OCc1ccccc1)[C@@H]1CCCCN1C(=O)C(=O)C1(O)CCCCO1` (some centres unmarked) [Compound 50], the Ki in test [1] was found to be 12 µM. Also, in test [2], the Kd amounted to 0.35 µM.
Take `CN(C)c1ccc(/C=C/C(=O)N2CCCC[C@H]2C(=O)OCc2ccccc2)cc1` [Compound 116]: the Ki in test [1] amounted to 20 µM. Moreover, in test [2], the Kd is above 5 µM.
For `COC(=O)C(=O)N(C)[C@H](C(=O)OCc1ccccc1)C(C)C` [Compound 126], the Ki in test [1] came to 170 µM. The Kd in test [2] is above 200 µM.
`O=C(Cc1ccccc1[N+](=O)[O-])C(=O)N1CCC[C@H]1C(=O)OCc1ccccc1` [Compound 27]: the Ki in test [1] turned out to be 26 µM. Further, the Kd in test [2] was above 25 µM.
Regarding `COC(=O)C(=O)N1CCCC[C@H]1C(=O)OCCCC1CCCCC1` [Compound 33], the Kd in test [2] amounted to 12 µM.
Take `COc1cccc(C(=O)C(=O)N2CCC[C@H]2C(=O)OCc2ccccc2)c1` [Compound 42]: the Ki in test [1] is 5 µM. Besides, the Kd in test [2] came to 80 µM.
Take `COc1ccc(/C=C/C(=O)N2CCCC[C@H]2C(=O)OCc2ccccc2)cc1` [Compound 112, (S)-Benzyl N-(4-Methoxycinnamoyl)pipecolate]: the Ki in test [1] was 4 µM. Further, in test [2], the Kd is above 8 µM.
Taken in the same sequence, the figures for `C[C@@H](OC(=O)[C@@H]1CCCCN1C(=O)C(=O)c1ccccc1)c1ccccc1` [Compound 51] were 1.5 µM and 1 µM.
Taken in the same sequence, the figures for `O=C(C(=O)N1CCCC[C@H]1C(=O)OCc1ccccc1)c1ccccn1` [Compound 17] were 130 µM and above 1000 µM.
`COc1ccc(/C=C/C(=O)N(C)[C@H](C(=O)OCc2ccccc2)C(C)C)cc1` [Compound 130]: in test [1], the Ki was determined as 30 µM. In addition, the Kd in test [2] is above 20 µM.
`CCC(=O)C(=O)N1CCC[C@H]1C(=O)OCc1ccccc1` [Compound 41]: the Ki in test [1] turned out to be 400 µM. Further, in test [2], the Kd is above 300 µM.
`COc1cc(OC)cc(C(=O)C(=O)N2CCCC[C@H]2C(=O)OCc2ccccc2)c1` [Compound 11]: the Ki in test [1] came out at 2 µM. Moreover, the Kd in test [2] came to 0.6 µM.
Regarding `O=C(C(=O)N1CCC[C@H]1C(=O)OCc1ccccc1)c1ccccc1` [Compound 2], the Ki in test [1] came to 25 µM. Further, in test [2], the Kd was above 5 µM.
For `C=CCOC(=O)[C@@H]1CCCCN1C(=O)C(=O)OC` [Compound 30], in that order: 190 µM and above 25 µM.
Taken in the same sequence, the figures for `COc1ccc(C(=O)C(=O)N2CCCC[C@H]2C(=O)OCc2ccccc2)cc1` [Compound 10] were 5 µM and 5 µM.
With `COc1cccc(OC)c1C(=O)C(=O)N1CCCC[C@H]1C(=O)OCc1ccccc1` [Compound 12], the Ki in test [1] is 50 µM. Besides, the Kd in test [2] stood at 25 µM.
On to `O=C(OCc1ccccc1)[C@@H]1CCCCN1C(=O)/C=C/c1ccc([N+](=O)[O-])cc1` [Compound 117], for which, in test [1], the Ki is 14 µM. Further, the Kd in test [2] is above 5 µM.
`COc1cc(/C=C/C(=O)N2CCC[C@H]2C(=O)OCc2ccccc2)cc(OC)c1OC` [Compound 115]: the Ki in test [1] came out at 450 µM. The Kd in test [2] was above 25 µM.
Taken in the same sequence, the figures for `COC(=O)C(=O)N1CCCC[C@H]1C(=O)OC/C(C)=C/c1ccc(OC)cc1` [Compound 36] were 40 µM and above 30 µM.
Taken in the same sequence, the figures for `COc1ccc(/C=C/C(=O)N(C)[C@@H](C)C(=O)OCc2ccccc2)cc1` [Compound 129, (S)-N-3-(4-methoxyphenyl)-prop-2-enoyl-N-methylalanine benzyl ester] were 80 µM and above 150 µM.
For `O=C(C(=O)N1CCCC[C@H]1C(=O)Oc1ccc2ccccc2c1)c1ccccc1` [Compound 6], in that order: 7 µM and 1 µM.
With `COC(=O)C(=O)N1CCCC[C@H]1C(=O)OCc1ccccc1` [Compound 31], the Kd in test [2] was above 50 µM.
By IC50 is commonly meant the point on the concentration scale where inhibition reaches its midpoint. Consider `COc1cc(C(=O)C(=O)N2CCCC[C@H]2C(=O)OCCCc2ccccc2)cc(OC)c1OC` [Compound 83], for which the IC50 came to 5.5 µM in test [3], 8.5 µM in test [4], 5.5 µM in test [5] and 7.5 µM in test [6]. Also, in test [1], the Ki is 0.11 µM.
Consider `O=C(C(=O)N1CCCC[C@H]1C(=O)OCc1ccccc1)c1ccco1` [Compound 20, (S)-Benzyl N-(2-furylglyoxyl)pipecolate], for which the Kd in test [2] was above 12 µM.
Turning to `O=C(OCCCc1ccccc1)[C@@H]1CCCCN1C(=O)C(=O)C1(F)CCCCC1` [Compound 91], the IC50 in test [3], in test [4], in test [5] and in test [6] was above 10 µM in each case. Moreover, the Ki in test [1] stood at 0.54 µM.
As to `O=C(CC1CCCCC1)C(=O)N1CCCC[C@H]1C(=O)OCCCCc1ccccc1` [Compound 99], the IC50 in test [3], in test [4], in test [5] and in test [6] was above 10 µM throughout. The Ki in test [1] was 0.12 µM.
On to `C/C(=C\c1ccccc1)COC(=O)[C@@H]1CCCCN1C(=O)C(=O)c1ccccc1` [Compound 23], for which the IC50 in test [3], in test [4], in test [5] and in test [6] was above 10 µM each time. For the same compound, the Ki in test [1] was 1.5 µM.
For `O=C(C(=O)N1CCCC[C@H]1C(=O)Oc1cccc2ccccc12)c1ccccc1` [Compound 5], the IC50 in test [3], in test [4], in test [5] and in test [6] was above 10 µM throughout. For the same compound, the Ki in test [1] came to 0.9 µM.
Regarding `C=CCOc1cccc(C(=O)C(=O)N2CCCC[C@H]2C(=O)OCc2ccccc2)c1` [Compound 65], the IC50 in test [3], in test [4], in test [5] and in test [6] was above 10 µM throughout. The Ki in test [1] was found to be 1 µM.
`O=C(C(=O)N1CCCC[C@H]1C(=O)OCCCCCCc1ccccc1)c1ccccc1` [Compound 69]: the IC50 in test [3] is above 10 µM; in test [4], above 10 µM; in test [5] it was 6.1 µM; in test [6], above 10 µM. Besides, in test [1], the Ki came out at 0.5 µM.
With `COc1ccc(C(=O)C(=O)N2CCCC[C@H]2C(=O)OCCCCc2ccccc2)cc1C1CCCCC1` [Compound 102], the IC50 in test [3] is above 10 µM; in test [4], 10 µM; in test [5], above 10 µM; in test [6], 10 µM. Also, in test [1], the Ki is 14 µM.
For `CCOc1cccc(C(=O)C(=O)N2CCCC[C@H]2C(=O)OCc2ccccc2)c1` [Compound 60], the IC50 in test [3], in test [4], in test [5] and in test [6] was above 10 µM throughout. Moreover, the Ki in test [1] turned out to be 0.56 µM.
With `COc1cc(C(=O)C(=O)N2CCCC[C@H]2C(=O)OCCCn2cnc3ccccc32)cc(OC)c1OC` [Compound 106], the IC50 in test [3] was above 10 µM; in test [4] it was above 10 µM; in test [5] it was 7 µM; in test [6], above 10 µM. For the same compound, in test [1], the Ki turned out to be 0.11 µM.

Values taken from US5516797A, “Immunosuppressive compounds” (Vertex Pharmaceuticals, Incorporated, priority 1994, dated 1996).
